Where two headings read alike, the source gives them in different places.
Target: T1, Human MGAT-2 (Homo sapiens, UniProt Q3SYC2)
T1 construct: made in house; host or cells: Sf9 cells (membrane preparation)
Experiment: MGAT LCMS Assay
Format: biochemical
Outline: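 Robotic enzyme reaction shaken 10 min, quenched with ice-cold methanol containing 1 μg/mL 1,2-distearoyl-rac-glycerol internal standard. Diolein product measured by LC/MS (C8 column, 65° C, APCI(+) triple quad). IC50 derived from diolein/internal standard peak area ratio.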

[1] = human MGAT2 membranes expressed in Sf9 cells, 100 μM 2-oleoylglycerol, 15 μM oleoyl-coenzyme A, read-out: h-MGAT LCMS IC50

T1 sequence (Q3SYC2 whole entry): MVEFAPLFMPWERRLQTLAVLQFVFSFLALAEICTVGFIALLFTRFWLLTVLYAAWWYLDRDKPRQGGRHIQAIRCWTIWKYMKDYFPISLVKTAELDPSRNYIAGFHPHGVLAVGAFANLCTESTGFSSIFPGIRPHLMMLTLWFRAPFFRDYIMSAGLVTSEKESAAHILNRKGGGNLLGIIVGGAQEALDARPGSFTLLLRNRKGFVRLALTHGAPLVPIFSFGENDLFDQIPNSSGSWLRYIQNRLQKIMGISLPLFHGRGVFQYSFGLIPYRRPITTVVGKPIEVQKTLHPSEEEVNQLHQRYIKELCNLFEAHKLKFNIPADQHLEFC

Compound: CCc1ccc(-c2cc(-c3ccc(OCCCC(F)(F)F)cc3Cl)[nH]c(=O)c2C(=O)NS(C)(=O)=O)s1 [Example 140, 6-(2-Chloro-4-(4,4,4-trifluorobutoxy)phenyl)-4-(5-ethylthiophen-2-yl)-N-(methylsulfonyl)-2-oxo-1,2-dihydropyridine-3-carboxamide]
- IC50 [1]: 0.03 µM

Compound: CS(=O)(=O)NC(=O)c1c(-c2ncc(C3CC3)s2)cc(-c2ccc(OCCCC(F)(F)F)cc2F)[nH]c1=O [Example 141, 4-(5-Cyclopropylthiazol-2-yl)-6-(2-fluoro-4-(4,4,4-trifluorobutoxy)phenyl)-N-(methylsulfonyl)-2-oxo-1,2-dihydropyridine-3-carboxamide]
- IC50 [1]: 0.007 µM

Compound: CCc1ccc(-c2cc(-c3ccc(/C=C/C4CC4)cc3)[nH]c(=O)c2-c2nn[nH]n2)s1 [Example 142, (E)-6-(4-(2-Cyclopropylvinyl)phenyl)-4-(5-ethylthiophen-2-yl)-3-(2H-tetrazol-5-yl)pyridin-2(1H)-one]
- IC50 [1]: 0.004 µM

Compound: CCOc1cc(OCCCC(F)(F)F)ccc1-c1cc(-c2ncc(C3CC3)s2)c(C(=O)NS(C)(=O)=O)c(=O)[nH]1 [Example 143, 4-(5-Cyclopropylthiazol-2-yl)-6-(2-ethoxy-4-(4,4,4-trifluorobutoxy)phenyl)-N-(methylsulfonyl)-2-oxo-1,2-dihydropyridine-3-carboxamide]
- IC50 [1]: 0.052 µM

Compound: CCc1ccc(-c2cc(-c3ccc(C4=CCC(C)(C)CC4)cc3)[nH]c(=O)c2-c2nn[nH]n2)s1 [Example 144, 6-(4′,4′-Dimethyl-2′,3′,4′,5′-tetrahydro-[1,1′-biphenyl]-4-yl)-4-(5-ethylthiophen-2-yl)-3-(2H-tetrazol-5-yl)pyridin-2(1H)-one]
- IC50 [1]: 0.024 µM

Compound: CCc1ccc(-c2cc(-c3ccc(CCC4CC4)cc3)[nH]c(=O)c2-c2nn[nH]n2)s1 [Example 145, 6-(4-(2-Cyclopropylethyl)phenyl)-4-(5-ethylthiophen-2-yl)-3-(2H-tetrazol-5-yl)pyridin-2(1H)-one]
- IC50 [1]: 0.01 µM

Compound: CCc1cnc(-c2cc(-c3ccc(OCCCC(F)(F)F)cc3F)[nH]c(=O)c2C(=O)NS(C)(=O)=O)s1 [Example 146, 4-(5-Ethylthiazol-2-yl)-6-(2-fluoro-4-(4,4,4-trifluorobutoxy)phenyl)-N-(methylsulfonyl)-2-oxo-1,2-dihydropyridine-3-carboxamide]
- IC50 [1]: 0.029 µM

Compound: CCc1cnc(-c2cc(-c3ccc(/C=C/C4CC4)cc3)[nH]c(=O)c2-c2nn[nH]n2)s1 [Example 147, (E)-6-(4-(2-Cyclopropylvinyl)phenyl)-4-(5-ethylthiazol-2-yl)-3-(2H-tetrazol-5-yl)pyridin-2(1H)-one]
- IC50 [1]: 0.007 µM

Compound: CCc1cnc(-c2cc(-c3ccc(OCCCCCC(F)(F)F)cc3F)[nH]c(=O)c2-c2nnn[nH]2)s1 [Example 148, 4-(5-Ethylthiazol-2-yl)-6-(2-fluoro-4-((6,6,6-trifluorohexyl)oxy)phenyl)-3-(1H-tetrazol-5-yl)pyridin-2(1H)-one]
- IC50 [1]: 0.0008 µM

Compound: CCc1cnc(-c2cc(-c3ccc(CCC4CC4)cc3)[nH]c(=O)c2-c2nn[nH]n2)s1 [Example 149, 6-(4-(2-Cyclopropylethyl)phenyl)-4-(5-ethylthiazol-2-yl)-3-(2H-tetrazol-5-yl)pyridin-2(1H)-one]
- IC50 [1]: 0.052 µM

Compound: CCc1ccc(-c2cc(-c3ccc(OCCCCCC(F)(F)F)cc3C(F)(F)F)[nH]c(=O)c2-c2nn[nH]n2)s1 [Example 151, 4-(5-Ethylthiophen-2-yl)-3-(2H-tetrazol-5-yl)-6-(4-((6,6,6-trifluorohexyl)oxy)-2-(trifluoromethyl)phenyl)pyridin-2(1H)-one]
- IC50: 0.0003 µM

Compound: CCc1ccc(-c2cc(-c3ccc(OCCCC(F)(F)F)cc3F)[nH]c(=O)c2-n2nn[nH]c2=O)s1 [Example 152, 4-(5-Ethylthiophen-2-yl)-6-(2-fluoro-4-(4,4,4-trifluorobutoxy)phenyl)-3-(5-oxo-4,5-dihydro-1H-tetrazol-1-yl)pyridin-2(1H)-one]
- IC50 [1]: 0.023 µM

Compound: Cc1ccc(-c2cc(-c3ccc(OCCCC(F)(F)F)cc3)[nH]c(=O)c2-n2nn[nH]c2=O)cc1 [Example 153, 3-(5-Oxo-4,5-dihydro-1H-tetrazol-1-yl)-4-(p-tolyl)-6-(4-(4,4,4-trifluorobutoxy)phenyl)pyridin-2(1H)-one]
- IC50 [1]: 0.049 µM

Compound: CCc1ccc(-c2cc(-c3ccc(OCCCCCC(F)(F)F)cc3C(F)(F)F)[nH]c(=O)c2C(=O)NS(=O)(=O)C2CC2)s1 [Example 154, N-(Cyclopropanesulfonyl)-4-(5-ethylthiophen-2-yl)-2-oxo-6-{4-[(6,6,6-trifluorohexyl)oxy]-2-(trifluoromethyl)phenyl}-1,2-dihydropyridine-3-carboxamide]
- IC50 [1]: 0.002 µM

Compound: O=c1[nH]c(-c2ccc(OCCCCCC(F)(F)F)cc2C(F)(F)F)cc(-c2ccn(CC3CC3)n2)c1-c1nn[nH]n1 [Example 155, 4-[1-(Cyclopropylmethyl)-1H-pyrazol-3-yl]-3-(2H-1,2,3,4-tetrazol-5-yl)-6-{4-[(6,6,6-trifluorohexyl)oxy]-2-(trifluoromethyl)phenyl}-1,2-dihydropyridin-2-one]
- IC50 [1]: 0.003 µM

Compound: CCc1ccc(-c2cc(-c3ccc(OCCCCCC(F)(F)F)cc3)[nH]c(=O)c2-n2nn[nH]c2=O)s1 [Example 156, 4-(5-Ethylthiophen-2-yl)-3-(5-oxo-4,5-dihydro-1H-1,2,3,4-tetrazol-1-yl)-6-{4-[(6,6,6-trifluorohexyl)oxy]phenyl}-1,2-dihydropyridin-2-one]
- IC50 [1]: 0.143 µM

Compound: CCc1ccc(-c2cc(-c3ccc(OCCCCCC(F)(F)F)cc3F)[nH]c(=O)c2-n2nn[nH]c2=O)s1 [Example 157, 4-(5-Ethylthiophen-2-yl)-6-{2-fluoro-4-[(6,6,6-trifluorohexyl)oxy]phenyl}-3-(5-oxo-4,5-dihydro-1H-1,2,3,4-tetrazol-1-yl)-1,2-dihydropyridin-2-one]
- IC50 [1]: 0.046 µM

Compound: O=c1[nH]c(-c2ccc(OCCCCCC(F)(F)F)cc2)cc(-c2nn(CC3CC3)cc2Cl)c1-n1nn[nH]c1=O [Example 158, 4-[4-Chloro-1-(cyclopropylmethyl)-1H-pyrazol-3-yl]-3-(5-oxo-4,5-dihydro-1H-1,2,3,4-tetrazol-1-yl)-6-{4-[(6,6,6-trifluorohexyl)oxy]phenyl}-1,2-dihydropyridin-2-one]
- IC50 [1]: 0.006 µM

Compound: Cc1ccc(-c2cc(-c3ccc(OCCCCCC(F)(F)F)cc3F)[nH]c(=O)c2-n2nn[nH]c2=O)cc1 [Example 159, 6-{2-Fluoro-4-[(6,6,6-trifluorohexyl)oxy]phenyl}-4-(4-methylphenyl)-3-(5-oxo-4,5-dihydro-1H-1,2,3,4-tetrazol-1-yl)-1,2-dihydropyridin-2-one]
- IC50 [1]: 0.038 µM

Compound: O=C(NS(=O)(=O)C1CC1)c1c(-c2ccn(CC3CC3)n2)cc(-c2ccc(OCCCCCC(F)(F)F)cc2C(F)(F)F)[nH]c1=O [Example 160, N-(Cyclopropanesulfonyl)-4-[1-(cyclopropylmethyl)-1H-pyrazol-3-yl]-2-oxo-6-{4-[(6,6,6-trifluorohexyl)oxy]-2-(trifluoromethyl)phenyl}-1,2-dihydropyridine-3-carboxamide]
- IC50 [1]: 0.012 µM

Compound: CCc1ccc(-c2cc(-c3ccc(C4CCC(C)(C)CC4)cc3)[nH]c(=O)c2-c2nn[nH]n2)s1 [Example 161, 6-[4-(4,4-Dimethylcyclohexyl)phenyl]-4-(5-ethylthiophen-2-yl)-3-(2H-1,2,3,4-tetrazol-5-yl)-1,2-dihydropyridin-2-one]
- IC50 [1]: 0.076 µM

Compound: O=c1[nH]c(-c2ccc(OCCCCCC(F)(F)F)cc2)cc(-c2ccc(OC(F)F)cc2)c1-n1nn[nH]c1=O [Example 162, 4-[4-(Difluoromethoxy)phenyl]-3-(5-oxo-4,5-dihydro-1H-1,2,3,4-tetrazol-1-yl)-6-{4-[(6,6,6-trifluorohexyl)oxy]phenyl}-1,2-dihydropyridin-2-one]
- IC50 [1]: 1.97 µM

Compound: CCc1ccc(-c2cc(-c3ccc(C4=CCC(C(C)(C)C)CC4)cc3)[nH]c(=O)c2-c2nn[nH]n2)s1 (centres unmarked) [Example 163, 6-[4-(4-tert-Butylcyclohex-1-en-1-yl)phenyl]-4-(5-ethylthiophen-2-yl)-3-(2H-1,2,3,4-tetrazol-5-yl)-1,2-dihydropyridin-2-one]
- IC50 [1]: 0.069 µM

Compound: CCCC1CC=C(c2ccc(-c3cc(-c4ccc(CC)s4)c(-c4nn[nH]n4)c(=O)[nH]3)cc2)CC1 (centres unmarked) [Example 164, 4-(5-Ethylthiophen-2-yl)-6-[4-(4-propylcyclohex-1-en-1-yl)phenyl]-3-(2H-1,2,3,4-tetrazol-5-yl)-1,2-dihydropyridin-2-one]
- IC50 [1]: 0.055 µM

Compound: O=c1cc(-c2ncc(C3CC3)s2)cc(-c2ccc(OCCCCCC(F)(F)F)cc2F)[nH]1 [Example 165, 4-(5-Cyclopropyl-1,3-thiazol-2-yl)-6-{2-fluoro-4-[(6,6,6-trifluorohexyl)oxy]phenyl}-1,2-dihydropyridin-2-one]
- IC50 [1]: 0.42 µM

Compound: CCc1cnc(-c2cc(-c3ccc(OCCCCCC(F)(F)F)cc3F)[nH]c(=O)c2)s1 [Example 166, 4-(5-Ethyl-1,3-thiazol-2-yl)-6-{2-fluoro-4-[(6,6,6-trifluorohexyl)oxy]phenyl}-1,2-dihydropyridin-2-one]
- IC50 [1]: 0.07 µM

Compound: CCCC1CCC(c2ccc(-c3cc(-c4ccc(CC)s4)c(-c4nn[nH]n4)c(=O)[nH]3)cc2)CC1 (centres unmarked) [Example 167, 4-(5-Ethylthiophen-2-yl)-6-[4-(4-propylcyclohexyl)phenyl]-3-(2H-1,2,3,4-tetrazol-5-yl)-1,2-dihydropyridin-2-one]
- IC50 [1]: 0.039 µM

Compound: O=c1[nH]c(-c2ccc(OCCCCCC(F)(F)F)cc2F)cc(-c2ccn(CC3CC3)n2)c1-n1nn[nH]c1=O [Example 168, 4-[1-(Cyclopropylmethyl)-1H-pyrazol-3-yl]-6-{2-fluoro-4-[(6,6,6-trifluorohexyl)oxy]phenyl}-3-(5-oxo-4,5-dihydro-1H-1,2,3,4-tetrazol-1-yl)-1,2-dihydropyridin-2-one]
- IC50 [1]: 0.373 µM

Compound: O=c1[nH]c(-c2ccc(OCCCCCC(F)(F)F)cc2F)cc(-c2nn(CC3CC3)cc2Cl)c1-n1nn[nH]c1=O [Example 169, 4-[4-Chloro-1-(cyclopropylmethyl)-1H-pyrazol-3-yl]-6-{2-fluoro-4-[(6,6,6-trifluorohexyl)oxy]phenyl}-3-(5-oxo-4,5-dihydro-1H-1,2,3,4-tetrazol-1-yl)-1,2-dihydropyridin-2-one]
- IC50 [1]: 0.009 µM

Reference: US9974778B2, “Substituted pyridinones as MGAT2 inhibitors” (BRISTOL-MYERS SQUIBB COMPANY, priority 2014, dated 2018)
